Test results as given in article PMC5843756, “The drug interaction potential of daprodustat when coadministered with pioglitazone, rosuvastatin, or trimethoprim in healthy subjects” (Pharmacology Research & Perspectives, 2018).
“And” between values parts separate entries of the source, which are not always exact repeats. Identical values can stand only once. Like-named read-outs stand apart in the source and are kept apart here.

Columns and labels:
[1] = Part A clinical DDI: plasma pharmacokinetics of pioglitazone and rosuvastatin with or without 100 mg daprodustat; settings: both, human, in vivo; for half-life: median elimination half-life, alone
Method: • Part A was an open‐label, randomized, single oral dose, two‐way cross‐over design that assessed the effects of a single, oral dose of 100 mg daprodustat on the pharmacokinetics of a single, oral dose of 15 mg pioglitazone and a single, oral dose of 10 mg rosuvastatin administered as a cocktail in healthy male and female subjects; • Part B was an open‐label, single sequence, two‐way cross‐over design to assess the effect of steady‐state trimethoprim (200 mg administered orally twice daily for 3 days) on the pharmacokinetics of a single, oral dose of 25 mg daprodustat in healthy, adult male and female subjects.
For Part A, for each of the two treatment periods, subjects remained in the Unit until 48 h postdosing, and were discharged following the last postdose assessment, if no clinically significant abnormalities were noted. Treatment periods were separated by at least a 7‐day washout. […]
Plasma analysis was performed under the management of Bioanalytical Science and Toxicokinetics, Drug Metabolism and Pharmacokinetics (DMPK), and GlaxoSmithKline (GSK). […] Samples were shipped frozen to PPD (Middleton, WI) where plasma samples were analyzed for rosuvastatin, pioglitazone, or daprodustat and predominant metabolites (GSK2391220 (M2), GSK2531403 (M3), GSK2487818 (M4), GSK2506102 (M5), GSK2531398 (M6), and GSK2531401 (M13)).
Pharmacokinetic analysis was performed using Phoenix WinNonLin® 6.3 (A Certara Company, Princeton, N.J). Pharmacokinetic parameters were determined from concentration–time data for pioglitazone, rosuvastatin, daprodustat, and predominant metabolites of daprodustat using standard noncompartmental methods.
Following loge transformation, AUC0‐∞ [defaulting to AUC0‐t if AUC0‐∞ could not be consistently determined] and C max of pioglitazone and rosuvastatin (for Part A) or daprodustat and six predominant metabolites (for Part B) were separately analyzed using a mixed‐effects model with fixed‐effect terms for treatment and period, and subject as a random effect in the model. […]

[2] = Part B clinical DDI: plasma pharmacokinetics of daprodustat and predominant metabolites with or without steady-state trimethoprim; type: in vivo, human; settings: for AUC(0-t) / AUC(0-inf) / Cmax: geometric LS mean (%CV)
Method: For Part B, all subjects were administered daprodustat on Day 1 with pharmacokinetic blood sampling over the next 48 h. Starting the morning of Day 3, all subjects were administered 200‐mg trimethoprim twice‐daily for 3 days (i.e., through Day 5). On Day 6 subjects were administered concomitantly daprodustat with 200 mg trimethoprim in the morning, with pharmacokinetic blood sampling occurring over the next 48 h. Trimethoprim continued to be administered at 12 h postdosing on Day 6, and twice daily on Day 7.
Blood samples for PK analyses were collected on Day 1 and Day 6 predose and at 0.25, 0.5, 1, 2, 3, 4, 5, 6, 8, 12, 18, 24, and 48 h postdose.
No formal hypothesis was tested in this study.

[3] = Tolerability (adverse events), Parts A and B; type: in vivo, human
Description: Tolerability measures included adverse events (AEs), serious adverse events (SAEs), clinical laboratory findings, vital signs, and concurrent medication assessments. An AE was defined as any untoward medical occurrence in a subject or clinical investigation subject, temporally associated with the use of an investigational product, whether or not considered related to the investigational product. […] The investigator or site staff was responsible for detecting, documenting, and reporting events that met the definition of an AE or SAE.

[4] = system: other CYPs; settings: human liver microsomes, up to 100 μmol/L; earlier in vitro studies, no reference given; cited from earlier work
[5] = system: hemoglobin levels; parameters: method as in Holdstock et al. 2016a; settings: ref Holdstock et al. 2016a, cited from earlier work
[6] = system: CYP2C8; settings: read-out: IC50 for inhibition of CYP2C8; human liver microsomes; earlier in vitro studies, no reference given; cited from earlier work
[7] = system: OATP1B1; settings: read-out: IC50 for inhibition of OATP1B1-mediated transport; in vitro transporter assays; earlier studies, no reference given; cited from earlier work
[8] = coadministration of gemfibrozil, strong CYP2C8 inhibitor; ref Johnson et al. 2013; cited from earlier work
[9] = parameters: method as in Deng et al. 2005; settings: pioglitazone with gemfibrozil, strong CYP2C8 inhibitor; ref Deng et al. 2005; cited from earlier work
[10] = 25 mg daprodustat + trimethoprim vs daprodustat alone
[11] = test:reference (with vs without trimethoprim)
[12] = Part B, Regimen C (n = 20) 25 mg daprodustat, Regimen D (n = 19) 25 mg daprodustat + 200 mg trimethoprim BID for 5 days

Compound: O=C(O)CNC(=O)C1C(=O)N(C2CCCCC2)C(=O)N(C2CCCCC2)C1=O [daprodustat]
- Cmax ([1]; 100 mg): ~4.5 µM
- fold increase in AUC with trimethoprim coadministration [2, 10]: 1.48 fold
- fold increase in Cmax with trimethoprim coadministration [2, 10]: 1.28 fold
- increase in plasma AUC with trimethoprim coadministration [2, 10]: 48%
- increase in plasma Cmax with trimethoprim coadministration [2, 10]: 28%
- AUC(0-t) ([2]; both sexes, human, oral, reference: 25 mg daprodustat alone, plasma, read-out: AUC0-t, Reference): 936 ng·h/mL
- AUC(0-inf) ([2]; both sexes, human, oral, reference: 25 mg daprodustat alone, plasma, read-out: AUC0-∞, Reference): 937 ng·h/mL
- Cmax ([2]; both sexes, human, oral, reference: 25 mg daprodustat alone, plasma, read-out: Cmax, Reference): 442 ng/mL
- AUC(0-t) ([2]; both sexes, human, oral, test: two 100 mg trimethoprim tablets (steady state) + 25 mg daprodustat, plasma, read-out: AUC0-t, Test): 1370 ng·h/mL
- AUC(0-inf) ([2]; both sexes, human, oral, test: two 100 mg trimethoprim tablets (steady state) + 25 mg daprodustat, plasma, read-out: AUC0-∞, Test): 1370 ng·h/mL
- Cmax ([2]; both sexes, human, oral, test: two 100 mg trimethoprim tablets (steady state) + 25 mg daprodustat, plasma, read-out: Cmax, Test): 560 ng/mL
- half-life ([2]; both sexes, human, plasma, oral, 25 mg daprodustat alone, read-out: median elimination half-life, alone (converted)): 3.06 h
- time of observed peak plasma levels ([2]; both treatment periods (with and without steady-state trimethoprim)): 1 h
- AUC0-t, Geometric LS mean ratio (90% CI) [2, 11]: 1.48 (1.39, 1.59)
- AUC0-∞, Geometric LS mean ratio (90% CI) [2, 11]: 1.48 (1.39, 1.59)
- Cmax, Geometric LS mean ratio (90% CI) [2, 11]: 1.28 (1.09, 1.51)
- Aphthous stomatitis [3, 12]: 0 n (%)
- Catheter site phlebitis [3, 12]: 0 n (%)
- Constipation [3, 12]: 1 (5) n (%)
- Diarrhea [3, 12]: 2 (10%) n (%) and 2 (10) n (%)
- Nausea [3, 12]: 0 n (%)
- Rhinitis [3, 12]: 0 n (%)
- Tongue coated [3, 12]: 0 n (%)
- Vomiting [3, 12]: 1 (5) n (%)
- Vulvovaginal mycotic infection [3, 12]: 0 n (%)
- proportion of subjects reporting AEs ([3]; per regimen, Parts A and B, healthy subjects): 10%
- inhibition of other CYPs [4]: no inhibition was observed
- mean hemoglobin levels ([5]; HDD subjects switched from ESA treatment, 5 mg once daily, 4-week treatment period): maintained mean hemoglobin levels
- mean increase in hemoglobin ([5]; NDD patients naïve to ESA treatment, oral 5 mg once daily, over 4 weeks): 1 gm/dL
- IC50 [6]: 21 µM
- IC50 [7]: 6 µM
- fold increase in daprodustat AUC with gemfibrozil [8]: 19 fold
- fold increase in daprodustat Cmax with gemfibrozil [8]: 4 fold

Compound: CCc1ccc(CCOc2ccc(CC3SC(=O)NC3=O)cc2)nc1 (stereo not drawn) [pioglitazone]
- half-life [1]: 7.01 h
- fold increase in AUC0-∞ with gemfibrozil [9]: 3.4 fold

Compound: CC(C)c1nc(N(C)S(C)(=O)=O)nc(-c2ccc(F)cc2)c1/C=C/[C@@H](O)C[C@@H](O)CC(=O)O [rosuvastatin]
- half-life [1]: 15.6 h
